This note sets out measurements from patent US20080295189A1, “Construction of Arterial Occlusive Disease Animal Model” (JAPAN HEALTH SCIENCES FOUNDATION, priority 2004, published 2008).

For this assay, the system named is blood of a crab-eating macaque. Description: Degree of coagulation of blood with coagulating agents (autologous blood clot formation). The following applies: blood in catheter, incubated 24 hours at 37° C., versus blood coagulated alone. The method, then: As coagulating agents, ADP and thrombin were used to examine the degree of coagulation. ADP was used at concentrations of 30 and 100 μg/ml (without thrombin at both concentrations), and thrombin at concentrations of 0.5 and 10% (w/v) (without ADP at both concentrations). Blood was drawn from the ventral tail artery of a crab-eating macaque, and was placed into a catheter with or without adding a coagulating agent, incubated for 24 hours at 37° C., and then pushed out to observe the condition of coagulation. As control was used a sample to which neither of the coagulating agents was added (blood which was coagulated alone). The results were shown in the left panel of FIG. 3. […] Next, a blood clot which was obtained by incubating blood for 24 hours at 37° C. with 100 μg of ADP and 10% (w/v) of thrombin was immersed in a povidone-iodine solution, followed by X-ray photography. As shown in the right panel of FIG. 3, there was observed a shade corresponding to the blood clot, allowing one to identify the location of a blood clot be means of an X-ray photographic apparatus.

For `Nc1ncnc2c1ncn2[C@@H]1O[C@H](COP(=O)(O)OP(=O)(O)O)[C@@H](O)[C@H]1O` [ADP, adenosine diphosphate], under “ADP 30 and 100 μg/ml without thrombin”, the condition of coagulation result was “the higher concentration of ADP, the better coagulation took place”.

In the case of Thrombin, the condition of coagulation entry (thrombin 0.5 and 10% (w/v) without ADP) is “comparable coagulation at both 0.5 and 10% (w/v)”.
